Structures can show the parent of a compound that is named as a salt.
These compounds were tested against T1, RIPK1 (Homo sapiens, UniProt Q13546) (assay: RIPK1-ADP-Glo enzymatic assay). Conditions: ADP-Glo luminescent ADP detection; 25 nM GST-RIPK1 kinase domain (residues 1-327), 300 μM ATP, dephosphorylated-MBP substrate; 30 min pre-incubation, 150 min reaction.
T1 construct: recombinant GST-RIPK1 kinase domain (residues 1-327) enzyme produced from baculovirus-transfected Sf21 cells; host or cells: baculovirus-transfected Sf21 insect cells
T1 sequence (Q13546 1-327): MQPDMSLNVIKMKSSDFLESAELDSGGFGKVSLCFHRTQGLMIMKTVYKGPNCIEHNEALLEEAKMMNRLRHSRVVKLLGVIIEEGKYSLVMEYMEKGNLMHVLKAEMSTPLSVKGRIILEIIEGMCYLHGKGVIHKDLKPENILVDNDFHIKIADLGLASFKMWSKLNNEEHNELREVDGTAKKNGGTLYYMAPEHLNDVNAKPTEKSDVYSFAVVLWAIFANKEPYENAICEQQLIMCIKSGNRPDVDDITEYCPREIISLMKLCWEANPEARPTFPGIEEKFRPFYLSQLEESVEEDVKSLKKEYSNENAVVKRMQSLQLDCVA
Format: biochemical
Protocol: RIPK1-ADP-Glo Enzymatic Assay
The enzymatic activity of RIPK1 is measured using an assay derived from ADP-Glo kit (Promega™), which provides a luminescent-based ADP detection system. Specifically, the ADP generated by RIPK1 kinase is proportionally detected as luminescent signals in a homogenous fashion. In this context, the assessment of the inhibitory effect of small molecules (EC50) is measured by the effectiveness of the compounds to inhibit the ATP to ADP conversion by RIPK1.
In this assay, the potency (EC50) of each compound was determined from a ten-point (1:3 serial dilution; top compound concentration of 100000 nM) titration curve using the following outlined procedure. To each well of a white ProxiPlus 384 well-plate, 30 nL of compound (1% DMSO in final assay volume of 3 μL) was dispensed, followed by the addition of 2 μL of 1×assay buffer (25 mM Hepes 7.3, 20 mM MgCl2, 50 mM NaCl, 1 mM DTT, 0.005% Tween20, and 0.02% BSA) containing 37.5 nM of GST-RIPK1 (recombinant GST-RIPK1 kinase domain (residues 1-327) enzyme produced from baculovirus-transfected Sf21 cells: MW=62 kDa). Plates were placed in an ambient temperature humidified chamber for a 30 minutes pre-incubation with compound. Subsequently, each reaction was initiated by the addition of 1 μL 1×assay buffer containing 900 μM ATP and […] dephosphorylated-MBP substrate. The final reaction in each well of 3 μL consists of 25 nM of GST-RIPK1, 300 μM ATP, and 3 μM dephosphorylated-MBP. Kinase reactions were allowed to proceed for 150 minutes prior to adding ADP-Glo reagents per Promega's outlined kit protocol. Dose-response curves were generated by plotting percent effect (% product conversion; Y-axis) vs. Log10 compound concentrations (X-axis). EC50 values were calculated using a non-linear regression, four-parameters sigmoidal dose-response model.

Structure (SMILES) | EC50 [nM]
CC1(Oc2ccccc2)CN(C(=O)N2N=CCC2c2cc(F)cc(F)c2)C1 (racemic) [Example 1.2, (R and S)-(5-(3,5-difluorophenyl)-4,5-dihydro-1H-pyrazol-1-yl)(3-methyl-3-phenoxyazetidin-1-yl)methanone, TFA salt] | 9.7
N#Cc1cc(OC2CN(C(=O)N3N=CCC3c3cc(F)cc(F)c3)C2)ncn1 (racemic) [Example 1.5, (R and S)-6-((1-(5-(3,5-difluorophenyl)-4,5-dihydro-1H-pyrazole-1-carbonyl)azetidin-3-yl)oxy)pyrimidine-4-carbonitrile, TFA salt] | 140
C[C@@H]1[C@H](Oc2ccccc2)CN1C(=O)N1N=CC[C@H]1c1cc(F)cc(F)c1 (racemic) [Example 1.11, ((S)-5-(3,5-difluorophenyl)-4,5-dihydro-1H-pyrazol-1-yl)((2R,3R and 2S,3S)-2-methyl-3-phenoxyazetidin-1-yl)methanone, TFA salt] | 11.8
O=C(N1CCC1c1ccccc1F)N1N=CC[C@H]1c1cc(F)cc(F)c1 (mixture of isomers) [Example 1.21, ((S)-5-(3,5-difluorophenyl)-4,5-dihydro-1H-pyrazol-1-yl)((R and S)-2-(2-fluorophenyl)azetidin-1-yl)methanone] | 27.6
O=C(N1CCC1Cc1ccccc1)N1N=CC[C@H]1c1cc(F)cc(F)c1 (mixture of isomers) [Example 1.22, ((S)-2-benzylazetidin-1-yl)((R and S)-5-(3,5-difluorophenyl)-4,5-dihydro-1H-pyrazol-1-yl)methanone] | 73.6
COC(=O)C1CC12CN(C(=O)N1N=CC[C@H]1c1cc(F)cc(F)c1)C2 (mixture of isomers) [Example 1.47, methyl (R and S)-5-((S)-5-(3,5-difluorophenyl)-4,5-dihydro-1H-pyrazole-1-carbonyl)-5-azaspiro[2.3]hexane-1-carboxylate] | 195
N#Cc1cc(OC2CN(C(=O)N3N=CC[C@H]3c3cc(F)cc(F)c3)C2)ncn1 (single isomer, unassigned) [Example 1.6] | 83
C[C@H]1[C@H](Oc2ccccc2)CN1C(=O)N1N=CC[C@H]1c1cc(F)cc(F)c1 (single isomer, unassigned) [Example 1.9, ((S)-5-(3,5-difluorophenyl)-4,5-dihydro-1H-pyrazol-1-yl)((2S,3R or 2R,3S)-2-methyl-3-phenoxyazetidin-1-yl)methanone, TFA salt] | 104
C[C@@H]1[C@@H](Oc2ccccc2)CN1C(=O)N1N=CC[C@H]1c1cc(F)cc(F)c1 (single isomer, unassigned) [Example 1.10, ((S)-5-(3,5-difluorophenyl)-4,5-dihydro-1H-pyrazol-1-yl)((2R,3S or 2S,3R)-2-methyl-3-phenoxyazetidin-1-yl)methanone, TFA salt] | 10.5
C[C@@H]1[C@H](Oc2ccccc2)CN1C(=O)N1N=CC[C@H]1c1cc(F)cc(F)c1 (single isomer, unassigned) [Example 1.12, ((S)-5-(3,5-difluorophenyl)-4,5-dihydro-1H-pyrazol-1-yl)((2R,3R or 2S,3S)-2-methyl-3-phenoxyazetidin-1-yl)methanone, TFA salt] | 8.8
C[C@H]1[C@@H](Oc2ccccc2)CN1C(=O)N1N=CC[C@H]1c1cc(F)cc(F)c1 (single isomer, unassigned) [Example 1.13, ((S)-5-(3,5-difluorophenyl)-4,5-dihydro-1H-pyrazol-1-yl)((2S,3S or 2R,3R)-2-methyl-3-phenoxyazetidin-1-yl)methanone, TFA salt] | 7.6
O=C(N1CC(Oc2ccccc2)C1)N1N=CC[C@@H]1c1ccccc1 (single isomer, unassigned) [Example 2.4] | 5000
O=C(N1CC(Oc2ccccc2)C1)N1N=CC[C@H]1c1ccccc1 (single isomer, unassigned) [Example 2.5] | 0.5
CC1(Oc2ccc(F)cc2)CN(C(=O)N2N=CC[C@H]2c2cncc(F)c2)C1 (single isomer, unassigned) [Example 2.31] | 17.1
Cc1ncc([C@@H]2CC=NN2C(=O)N2CC(Oc3ccc(F)cc3)C2)cc1F (single isomer, unassigned) [Example 2.40] | 14.7
CC(c1ccccc1)C1CN(C(=O)N2N=CC[C@H]2c2cc(F)cc(F)c2)C1 (single isomer, unassigned) [Example 2.42, ((S)-5-(3,5-difluorophenyl)-4,5-dihydro-1H-pyrazol-1-yl)(3-((R or S)-1-phenylethyl)azetidin-1-yl)methanone] | 18.6
CC(c1ccccc1)C1CN(C(=O)N2N=CC[C@H]2c2cc(F)cc(F)c2)C1 (single isomer, unassigned) [Example 2.43, ((S)-5-(3,5-difluorophenyl)-4,5-dihydro-1H-pyrazol-1-yl)(3-((S or R)-1-phenylethyl)azetidin-1-yl)methanone] | 46.7
CC1(Oc2ccccc2)CN(C(=O)N2N=CC[C@H]2c2cc(F)cc(F)c2)C1 [Example 1.1, (S)-(5-(3,5-difluorophenyl)-4,5-dihydro-1H-pyrazol-1-yl)(3-methyl-3-phenoxyazetidin-1-yl)methanone, TFA salt] | 2.5
O=C(N1CC(Oc2ccccc2)C1)N1N=CC[C@@H]1c1cc(F)cc(F)c1 [Example 1.4, (R)-(5-(3,5-difluorophenyl)-4,5-dihydro-1H-pyrazol-1-yl)(3-phenoxyazetidin-1-yl)methanone, TFA salt] | 600
O=C(N1CC(Oc2cccnc2)C1)N1N=CC[C@H]1c1cc(F)cc(F)c1 [Example 1.7, (S)-(5-(3,5-difluorophenyl)-4,5-dihydro-1H-pyrazol-1-yl)(3-(pyridin-3-yloxy)azetidin-1-yl)methanone, TFA salt] | 12.8
O=C(N1CC(Oc2ccncc2)C1)N1N=CC[C@H]1c1cc(F)cc(F)c1 [Example 1.8, (S)-(5-(3,5-difluorophenyl)-4,5-dihydro-1H-pyrazol-1-yl)(3-(pyridin-4-yloxy)azetidin-1-yl)methanone, TFA salt] | 8.7
O=C(N1CC(Cc2ccccc2)C1)N1N=CC[C@H]1c1cc(F)cc(F)c1 [Example 1.14, (S)-(3-benzylazetidin-1-yl)(5-(3,5-difluorophenyl)-4,5-dihydro-1H-pyrazol-1-yl)methanone, TFA salt] | 6.1
O=C(N1CC(O)C1)N1N=CC[C@H]1c1cc(F)cc(F)c1 [Example 1.15, (S)-(5-(3,5-difluorophenyl)-4,5-dihydro-1H-pyrazol-1-yl)(3-hydroxyazetidin-1-yl)methanone] | 3680
O=C(N1CC(OC2CCCC2)C1)N1N=CC[C@H]1c1cc(F)cc(F)c1 [Example 1.17, (S)-(3-(cyclopentyloxy)azetidin-1-yl)(5-(3,5-difluorophenyl)-4,5-dihydro-1H-pyrazol-1-yl)methanone, TFA salt] | 11.5
O=C(N1CC(c2ncccn2)C1)N1N=CC[C@H]1c1cc(F)cc(F)c1 [Example 1.18, (S)-(5-(3,5-difluorophenyl)-4,5-dihydro-1H-pyrazol-1-yl)(3-(pyrimidin-2-yl)azetidin-1-yl)methanone] | 325
O=C(N1CC2(C1)CN(c1ccccn1)C2)N1N=CC[C@H]1c1cc(F)cc(F)c1 [Example 1.19, (S)-(5-(3,5-difluorophenyl)-4,5-dihydro-1H-pyrazol-1-yl)(6-(pyridin-2-yl)-2,6-diazaspiro[3.3]heptan-2-yl)methanone, TFA salt] | 3450
CS(=O)(=O)N1CCC2(CC1)CN(C(=O)N1N=CC[C@H]1c1cc(F)cc(F)c1)C2 [Example 1.20, (S)-(5-(3,5-difluorophenyl)-4,5-dihydro-1H-pyrazol-1-yl)(7-(methylsulfonyl)-2,7-diazaspiro[3.5]nonan-2-yl)methanone] | 1320
CC(C)OC1CN(C(=O)N2N=CC[C@H]2c2cc(F)cc(F)c2)C1 [Example 1.24, (S)-(5-(3,5-difluorophenyl)-4,5-dihydro-1H-pyrazol-1-yl)(3-isopropoxyazetidin-1-yl)methanone] | 29.9
O=C(N1CC(OCc2ccccc2)C1)N1N=CC[C@H]1c1cc(F)cc(F)c1 [Example 1.25, (S)-(3-(benzyloxy)azetidin-1-yl)(5-(3,5-difluorophenyl)-4,5-dihydro-1H-pyrazol-1-yl)methanone] | 11.8
